# Measurements taken from publication PMC8154581, “Discovery of Novel Thiophene-arylamide Derivatives as DprE1 Inhibitors with Potent Antimycobacterial Activities” (Journal of Medicinal Chemistry, 2021).
# Tests used:
# Assay in all cases: microbe, parasite or virus in culture
# Type in all cases: cell-based
# [1] = test system: M. tuberculosis clinical isolate 14862; settings: Mycobacterium tuberculosis, read-out: MIC 14862
# [2] = test system: M. tuberculosis clinical isolate 13946; settings: Mycobacterium tuberculosis, read-out: MIC 13946
# [3] = test system: PBTZ169-resistant strain of M. tuberculosis; settings: Mycobacterium tuberculosis, read-out: MIC PBTZ169-resistant strain
# [4] = test system: bedaquiline-resistant strain of M. tuberculosis; settings: Mycobacterium tuberculosis, read-out: MIC bedaquiline-resistant strain
SMILES,MIC [1] [µg/mL],MIC [2] [µg/mL],MIC [3] [ng/mL],MIC [4] [µg/mL]
"CCOC(=O)NC(=O)c1ccsc1NC(=O)c1ccc(C(=O)N2CCCCC2)cc1 [Compound 23j, Ethyl (2-(4-(Piperidine-1-carbonyl)benzamido)thiophene-3-carbonyl)carbamate]",0.059,0.082,,
"COC(=O)NC(=O)c1ccsc1NC(=O)c1ccc(C(=O)N2CCCCC2)cc1 [Compound 25a, Methyl (2-(4-(Piperidine-1-carbonyl)benzamido)thiophene-3-carbonyl)carbamate]",0.24,0.24,,
"CCOC(=O)NC(=O)c1ccsc1NC(=O)c1ccc(C(=O)N2CCCCC2)c(F)c1 [Compound 24f, Ethyl (2-(3-Fluoro-4-(piperidine-1-carbonyl)benzamido)thiophene-3-carbonyl)carbamate]",0.031,0.031,,
"CCOC(=O)NC(=O)c1ccsc1NC(=O)c1nc2ccccc2s1 [TCA1, reference compound]",0.48,0.95,,
"NNC(=O)c1ccncc1 [INH, isoniazid, reference compound]",> 10,2.46,,
O=c1nc(N2CCN(CC3CCCCC3)CC2)sc2c([N+](=O)[O-])cc(C(F)(F)F)cc12 [PBTZ169],,,5,
"COC(=O)NC(=O)c1ccsc1NC(=O)c1ccc(C(=O)N2CCCCC2)c(F)c1 [Compound 25b, Methyl (2-(3-Fluoro-4-(piperidine-1-carbonyl)benzamido)thiophene-3-carbonyl)carbamate]",0.12,0.062,,
"CCOC(=O)NC(=O)c1ccsc1NC(=O)c1coc(C(=O)N2CCCCC2)c1 [Compound 24k, Ethyl (2-(5-(Piperidine-1-carbonyl)furan-3-carboxamido)thiophene-3-carbonyl)carbamate]",0.23,0.44,,
"CCOC(=O)NC(=O)c1ccsc1NC(=O)c1ccc(C(=O)N2CCCCC2)s1 [Compound 24j, Ethyl (2-(5-(Piperidine-1-carbonyl)thiophene-2-carboxamido)thiophene-3-carbonyl)carbamate]",0.12,0.12,,
"COc1nc2ccc(Br)cc2cc1[C@@H](c1ccccc1)[C@@](O)(CCN(C)C)c1cccc2ccccc12 [bedaquiline, reference compound]",,,,2.24
"O=C(Nc1sccc1C(=O)Nc1nccc(C(F)(F)F)n1)c1ccc(C(=O)N2CCCCC2)cc1 [Compound 25l, 2-(4-(Piperidine-1-carbonyl)benzamido)-N-(4-(trifluoromethyl)pyrimidin-2-yl)thiophene-3-carboxamide]",0.48,0.94,,
